Data on 1 substance can be found in patent US20100104521A1, “COSMETIC AND/OR PHARMACEUTICAL COMPOSITION COMPRISING AS AN ACTIVE PRINCIPLE AT LEAST ONE PEPTIDE AND USE OF THIS PEPTIDE” (SOCIETE D'EXTRACTION DES PRINCIPES ACTIFS SA (VINCIENCE), priority 2006, published 2010).

The test deals with melanocytes of human skin biopsies. Kind of test: Ex vivo study of the effect of the peptide on the synthesis of melanin (human skin biopsies, Fontana-Masson staining). In kind it is cell-based. The settings on record: human skin biopsies 6 mm in ex vivo culture, two applications daily, peptide at 1% starting with a 50-ppm solution, 48 hours. On the procedure:
The aim of this ex vivo study is to highlight the increase in melanization produced by the peptides according to the invention.
Protocol: Biopsies of human skin 6 mm in diameter are held in an ex vivo culture in the presence of a specific medium (1 g/L DMEM, Ham's F-12, SVF, and antibiotics) on inserts deposited on 6-well plates. […] The duration of the treatment is 48 hours. The biopsies are subsequently fixed in 9% formaldehyde and NaCl (150 mM) for 10 hours and then enclosed in paraffin. Thin-sections of the skin 3 μm thick are then made, and the melanin is specifically stained by the Fontana-Masson technique. […] Conclusions: The peptide of sequence of SEQ ID No. 4 induces a strong increase in the synthesis of melanin by the melanocytes and stimulates the entire process of melanin distribution in the epidermis.

For the substance Trp-Lys-Leu-Asp (WKLD) [SEQ ID No. 4], the “location / distribution of melanin in the epidermis” value (Fontana-Masson staining) is listed as “located in the basal layer but is also transported into the supra-basal layers”. Also, the “intensity of melanin coloration of skin thin-sections (Fontana-Masson technique)” value (versus biopsies without application) is recorded as “coloration of clearly increased intensity”.
